The values below come from article PMC10276154, “Development of the nonreceptor tyrosine kinase FER-targeting PROTACs as a potential strategy for antagonizing ovarian cancer cell motility and invasiveness” (The Journal of Biological Chemistry, 2023).

Molecules are shown by their SMILES. pIC50: −log10 of the molar value.

The test has as its target FER (Homo sapiens, UniProt P16591). The test is described as follows: pY402-FER autophosphorylation immunoblot in HEK293FT cells transfected with pLV-FER, […] h. Type of test: cell-based.

FER, sequence (P16591 whole entry): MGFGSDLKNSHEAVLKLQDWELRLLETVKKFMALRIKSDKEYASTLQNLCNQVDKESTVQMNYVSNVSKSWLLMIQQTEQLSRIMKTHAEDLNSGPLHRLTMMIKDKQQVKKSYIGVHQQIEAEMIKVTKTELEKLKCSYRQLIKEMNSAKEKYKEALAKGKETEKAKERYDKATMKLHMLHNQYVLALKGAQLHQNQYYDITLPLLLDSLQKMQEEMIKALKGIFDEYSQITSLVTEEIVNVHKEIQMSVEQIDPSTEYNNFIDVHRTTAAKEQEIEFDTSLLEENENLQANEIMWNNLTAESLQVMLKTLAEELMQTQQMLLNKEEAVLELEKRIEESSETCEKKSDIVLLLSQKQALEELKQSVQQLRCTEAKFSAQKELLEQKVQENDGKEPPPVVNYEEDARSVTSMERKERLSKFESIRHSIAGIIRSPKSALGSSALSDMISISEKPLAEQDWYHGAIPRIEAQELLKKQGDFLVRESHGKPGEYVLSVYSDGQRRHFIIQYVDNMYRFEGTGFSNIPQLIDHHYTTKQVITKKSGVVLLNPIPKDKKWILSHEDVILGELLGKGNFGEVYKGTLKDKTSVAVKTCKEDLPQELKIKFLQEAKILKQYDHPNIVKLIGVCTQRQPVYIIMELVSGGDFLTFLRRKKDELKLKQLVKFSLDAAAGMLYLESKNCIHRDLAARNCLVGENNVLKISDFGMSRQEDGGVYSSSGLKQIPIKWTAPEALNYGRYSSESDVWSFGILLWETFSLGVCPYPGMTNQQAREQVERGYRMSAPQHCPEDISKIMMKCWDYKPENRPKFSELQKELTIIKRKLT

`COc1cc(N2CCC(N3CCN(C)CC3)CC2)ccc1Nc1ncc(Cl)c(Nc2ccccc2P(C)(C)=O)n1` [brigatinib] showed a pIC50 of 6.86.
